Assay results as given in article PMC11645656, “MRGPRX4 mediates phospho-drug associated pruritus in a humanized mouse model” (Science translational medicine, 2024).
Values joined by “and” are separate entries in the source; they are usually repeats but may differ in a detail not shown here. Equal entries are not always repeated.

How the values were obtained:
mock = experiment: Calcium mobilization assay (FLIPR), mock-transfected control cells (Fig. 3E and 3F); assay type: cell-based
[1] = test system: MRGPRX4-expressing HEK293 cells (Gαq signaling pathway); experiment: Pharmacological blocker experiments: phospho-drug evoked calcium response in MRGPRX4-expressing HEK293 cells after inhibitor preincubation
Procedure: Various HEK293 cell lines were plated on PDL-coated glass coverslips. […] For pharmacological blocker experiments, cells were pre-incubated with signaling pathway inhibitors, including YM254890, U73122, and thapsigargin, for 30 min before imaging.
Traces of [Ca2+] from MRGPRX4-expressing HEK293 cells stimulated with (A) 1 µM
U73122 (middle), or 10 µM sarco/endoplasmic reticulum Ca2+-ATPase inhibitor thapsigargin
(right) for 30 min before imaging.
independent experiments, each performed in quadruplicate.

O=C1NC(c2ccccc2)(c2ccccc2)C(=O)N1COP(=O)(O)O [Fosphenytoin]
Calcium mobilization response, dose-response replicate data (Fig. 3E and 3F) (mock; concentration 188 pM): 2.751 and 6.052 and -2.532 | Calcium mobilization response, dose-response replicate data (Fig. 3E and 3F) (mock; concentration 565 pM): 4.071 and -5.503 and 12.3245 | Calcium mobilization response, dose-response replicate data (Fig. 3E and 3F) (mock; concentration 1.69e-9 M): 4.071 and 3.081 and -1.212 | Calcium mobilization response, dose-response replicate data (Fig. 3E and 3F) (mock; concentration 5.08e-9 M): 3.411 and -2.202 | Calcium mobilization response, dose-response replicate data (Fig. 3E and 3F) (mock; concentration 1.52e-8 M): -1.542 and -1.212 and -3.853 | Calcium mobilization response, dose-response replicate data (Fig. 3E and 3F) (mock; concentration 4.57e-8 M): -2.532 and -6.494 and 5.722 | Calcium mobilization response, dose-response replicate data (Fig. 3E and 3F) (mock; concentration 1.37e-7 M): -8.474 and 2.091 and 3.411 | Calcium mobilization response, dose-response replicate data (Fig. 3E and 3F) (mock; concentration 4.12e-7 M): -2.202 and -3.522 and -0.2212 | Calcium mobilization response, dose-response replicate data (Fig. 3E and 3F) (mock; concentration 1.23e-6 M): -8.474 and -1.212 and -3.1923 | Calcium mobilization response, dose-response replicate data (Fig. 3E and 3F) (mock; concentration 3.7e-6 M): -6.824 and 3.081 and 0.4401 | Calcium mobilization response, dose-response replicate data (Fig. 3E and 3F) (mock; concentration 1.11e-5 M): -13.7563 and -1.212 and 1.1003 | Calcium mobilization response, dose-response replicate data (Fig. 3E and 3F) (mock; concentration 3.33e-5 M): -14.4165 and -16.3972 and -5.173 | Calcium mobilization response, dose-response replicate data (Fig. 3E and 3F) (mock; concentration 0.0001 M): -29.6022 and -24.6503 and -24.9805 | calcium response trace, fig. S2B ([1]; Time 0.8024 s, + Vehicle): 1 | calcium response trace, fig. S2B ([1]; Time 0.8024 s, + YM254890): 1 | calcium response trace, fig. S2B ([1]; Time 3.296 s, + YM254890): 1.0086 | calcium response trace, fig. S2B ([1]; Time 5.8096 s, + YM254890): 1.014 | calcium response trace, fig. S2B ([1]; Time 8.3136 s, + YM254890): 1.012 | calcium response trace, fig. S2B ([1]; Time 10.8264 s, + YM254890): 1.017 | calcium response trace, fig. S2B ([1]; Time 13.3408 s, + YM254890): 1.0091 | calcium response trace, fig. S2B ([1]; Time 15.8536 s, + YM254890): 1.017 | calcium response trace, fig. S2B ([1]; Time 18.3672 s, + YM254890): 1.0038 | calcium response trace, fig. S2B ([1]; Time 20.8808 s, + YM254890): 1.022 and 1.026 | calcium response trace, fig. S2B ([1]; Time 23.3848 s, + YM254890): 1.023 and 1.0316 | calcium response trace, fig. S2B ([1]; Time 25.8984 s, + YM254890): 1.028 and 1.035 | calcium response trace, fig. S2B ([1]; Time 28.392 s, + YM254890): 1.036 and 1.04 | calcium response trace, fig. S2B ([1]; Time 30.8952 s, + YM254890): 1.032 and 1.039 | calcium response trace, fig. S2B ([1]; Time 33.3896 s, + YM254890): 1.039 and 1.042 | calcium response trace, fig. S2B ([1]; Time 35.8728 s, + YM254890): 1.035 and 1.045 | calcium response trace, fig. S2B ([1]; Time 38.3656 s, + YM254890): 1.038 and 1.049 | calcium response trace, fig. S2B ([1]; Time 40.86 s, + YM254890): 1.038 and 1.045 | calcium response trace, fig. S2B ([1]; Time 43.3632 s, + YM254890): 1.041 and 1.036 | calcium response trace, fig. S2B ([1]; Time 45.8664 s, + YM254890): 1.037 and 1.041 | calcium response trace, fig. S2B ([1]; Time 48.38 s, + YM254890): 1.051 and 1.044 | calcium response trace, fig. S2B ([1]; Time 50.8936 s, + YM254890): 1.041 and 1.044 | calcium response trace, fig. S2B ([1]; Time 53.4072 s, + YM254890): 1.038 and 1.0407 | calcium response trace, fig. S2B ([1]; Time 55.9112 s, + YM254890): 1.034 and 1.044 | calcium response trace, fig. S2B ([1]; Time 58.4248 s, + YM254890): 1.04 and 1.039 | calcium response trace, fig. S2B ([1]; Time 60.9288 s, + YM254890): 1.042 and 1.044 | calcium response trace, fig. S2B ([1]; Time 63.444 s, + YM254890): 1.04 and 1.035 | calcium response trace, fig. S2B ([1]; Time 65.9256 s, + YM254890): 1.037 | calcium response trace, fig. S2B ([1]; Time 68.4192 s, + YM254890): 1.036 | calcium response trace, fig. S2B ([1]; Time 70.9024 s, + YM254890): 1.036 | calcium response trace, fig. S2B ([1]; Time 73.3864 s, + YM254890): 1.029 | calcium response trace, fig. S2B ([1]; Time 75.8896 s, + YM254890): 1.034 | calcium response trace, fig. S2B ([1]; Time 78.3936 s, + YM254890): 1.032 | calcium response trace, fig. S2B ([1]; Time 80.9064 s, + YM254890): 1.03 | calcium response trace, fig. S2B ([1]; Time 83.4104 s, + YM254890): 1.032 | calcium response trace, fig. S2B ([1]; Time 85.9136 s, + YM254890): 1.031 | calcium response trace, fig. S2B ([1]; Time 88.4176 s, + YM254890): 1.027 | calcium response trace, fig. S2B ([1]; Time 90.9336 s, + YM254890): 1.025 | calcium response trace, fig. S2B ([1]; Time 93.4144 s, + YM254890): 1.031 | calcium response trace, fig. S2B ([1]; Time 95.908 s, + YM254890): 1.026 | calcium response trace, fig. S2B ([1]; Time 98.4016 s, + YM254890): 1.025 | calcium response trace, fig. S2B ([1]; Time 100.895 s, + YM254890): 1.029 | calcium response trace, fig. S2B ([1]; Time 103.389 s, + YM254890): 1.027 | calcium response trace, fig. S2B ([1]; Time 105.892 s, + YM254890): 1.0264 | calcium response trace, fig. S2B ([1]; Time 108.406 s, + YM254890): 1.031 | calcium response trace, fig. S2B ([1]; Time 110.9 s, + YM254890): 1.026 | calcium response trace, fig. S2B ([1]; Time 113.413 s, + YM254890): 1.02 | calcium response trace, fig. S2B ([1]; Time 115.917 s, + YM254890): 1.023 | calcium response trace, fig. S2B ([1]; Time 118.43 s, + YM254890): 1.023 | calcium response trace, fig. S2B ([1]; Time 120.934 s, + YM254890): 1.021 | calcium response trace, fig. S2B ([1]; Time 123.45 s, + YM254890): 1.02 | calcium response trace, fig. S2B ([1]; Time 125.93 s, + YM254890): 1.014 | calcium response trace, fig. S2B ([1]; Time 128.414 s, + YM254890): 1.021 | calcium response trace, fig. S2B ([1]; Time 130.908 s, + YM254890): 1.026 | calcium response trace, fig. S2B ([1]; Time 133.402 s, + YM254890): 1.02 | calcium response trace, fig. S2B ([1]; Time 135.905 s, + YM254890): 1.011 | calcium response trace, fig. S2B ([1]; Time 138.41 s, + YM254890): 1.019 | calcium response trace, fig. S2B ([1]; Time 140.942 s, + YM254890): 1.016 | calcium response trace, fig. S2B ([1]; Time 143.446 s, + YM254890): 1.018 | calcium response trace, fig. S2B ([1]; Time 145.949 s, + YM254890): 1.014 | calcium response trace, fig. S2B ([1]; Time 148.465 s, + YM254890): 1.02 | calcium response trace, fig. S2B ([1]; Time 150.996 s, + YM254890): 1.016 | calcium response trace, fig. S2B ([1]; Time 153.49 s, + YM254890): 1.011 | calcium response trace, fig. S2B ([1]; Time 156.003 s, + YM254890): 1.016 | calcium response trace, fig. S2B ([1]; Time 158.497 s, + YM254890): 1.014 | calcium response trace, fig. S2B ([1]; Time 161 s, + YM254890): 1.008 | calcium response trace, fig. S2B ([1]; Time 163.494 s, + YM254890): 1.02 | calcium response trace, fig. S2B ([1]; Time 165.987 s, + YM254890): 1.0117 | calcium response trace, fig. S2B ([1]; Time 168.481 s, + YM254890): 1.018 | calcium response trace, fig. S2B ([1]; Time 170.974 s, + YM254890): 1.011 | calcium response trace, fig. S2B ([1]; Time 173.488 s, + YM254890): 1.015 | calcium response trace, fig. S2B ([1]; Time 175.991 s, + YM254890): 1.0057 | calcium response trace, fig. S2B ([1]; Time 178.505 s, + YM254890): 1.009 | calcium response trace, fig. S2B ([1]; Time 181.018 s, + YM254890): 1.011 | calcium response trace, fig. S2B ([1]; Time 183.532 s, + YM254890): 1.014 | calcium response trace, fig. S2B ([1]; Time 186.036 s, + YM254890): 1.016 | calcium response trace, fig. S2B ([1]; Time 188.549 s, + YM254890): 1.014 | calcium response trace, fig. S2B ([1]; Time 191.053 s, + YM254890): 1.017 | calcium response trace, fig. S2B ([1]; Time 193.556 s, + YM254890): 1.013 | calcium response trace, fig. S2B ([1]; Time 196.05 s, + YM254890): 1.011 | calcium response trace, fig. S2B ([1]; Time 198.533 s, + YM254890): 1.011
